# ± gives the expanded uncertainty stated by the source.
# Assay: xn = mol fraction of the nth substance listed
# Conditions: 101 kPa, Liquid; for speed of sound: Sing-around technique in a fixed-path interferometer; for mass density: Vibrating tube method
structure (smiles),measurement,setting,value
CCCCCn1cc[n+](C)c1.[Br-] [1-pentyl-3-methylimidazolium bromide] + OCCO,speed of sound,"288.15 K, x1 = 0.0528",1671.7 ± 2.2 m/s
same,speed of sound,"288.15 K, x1 = 0.1031",1664.4 ± 2.2 m/s
same,speed of sound,"288.15 K, x1 = 0.2102",1650.6 ± 2.3 m/s
same,speed of sound,"288.15 K, x1 = 0.3163",1645.3 ± 2.4 m/s
same,speed of sound,"288.15 K, x1 = 0.4186",1641.4 ± 2.4 m/s
same,speed of sound,"288.15 K, x1 = 0.512",1637.7 ± 2.5 m/s
same,speed of sound,"288.15 K, x1 = 0.6129",1636.5 ± 2.6 m/s
same,speed of sound,"288.15 K, x1 = 0.6967",1638.7 ± 2.6 m/s
same,speed of sound,"288.15 K, x1 = 0.8031",1645 ± 2.8 m/s
same,speed of sound,"288.15 K, x1 = 0.9021",1657.9 ± 2.9 m/s
same,mass density,"288.15 K, x1 = 0.0528",1135.7 ± 0.19 kg/m3
same,mass density,"288.15 K, x1 = 0.1031",1149.85 ± 0.21 kg/m3
same,mass density,"288.15 K, x1 = 0.2102",1173.93 ± 0.28 kg/m3
same,mass density,"288.15 K, x1 = 0.3163",1191.2 ± 0.38 kg/m3
same,mass density,"288.15 K, x1 = 0.4186",1204.89 ± 0.48 kg/m3
same,mass density,"288.15 K, x1 = 0.512",1215.13 ± 0.59 kg/m3
same,mass density,"288.15 K, x1 = 0.6129",1224.18 ± 0.72 kg/m3
same,mass density,"288.15 K, x1 = 0.6967",1232.13 ± 0.85 kg/m3
same,mass density,"288.15 K, x1 = 0.8031",1241.92 ± 1 kg/m3
same,mass density,"288.15 K, x1 = 0.9021",1252.46 ± 1.2 kg/m3
same,speed of sound,"293.15 K, x1 = 0.0528",1659.9 ± 2.2 m/s
same,speed of sound,"293.15 K, x1 = 0.1031",1653.9 ± 2.2 m/s
same,speed of sound,"293.15 K, x1 = 0.2102",1642 ± 2.3 m/s
same,speed of sound,"293.15 K, x1 = 0.3163",1634.5 ± 2.4 m/s
same,speed of sound,"293.15 K, x1 = 0.4186",1628.9 ± 2.4 m/s
same,speed of sound,"293.15 K, x1 = 0.512",1625.5 ± 2.5 m/s
same,speed of sound,"293.15 K, x1 = 0.6129",1623.6 ± 2.6 m/s
same,speed of sound,"293.15 K, x1 = 0.6967",1623.8 ± 2.6 m/s
same,speed of sound,"293.15 K, x1 = 0.8031",1626.3 ± 2.7 m/s
same,speed of sound,"293.15 K, x1 = 0.9021",1631.1 ± 2.9 m/s
same,mass density,"293.15 K, x1 = 0.0528",1132.19 ± 0.18 kg/m3
same,mass density,"293.15 K, x1 = 0.1031",1146.32 ± 0.21 kg/m3
same,mass density,"293.15 K, x1 = 0.2102",1170.4 ± 0.28 kg/m3
same,mass density,"293.15 K, x1 = 0.3163",1187.71 ± 0.37 kg/m3
same,mass density,"293.15 K, x1 = 0.4186",1201.44 ± 0.48 kg/m3
same,mass density,"293.15 K, x1 = 0.512",1211.73 ± 0.59 kg/m3
same,mass density,"293.15 K, x1 = 0.6129",1220.73 ± 0.72 kg/m3
same,mass density,"293.15 K, x1 = 0.6967",1228.69 ± 0.84 kg/m3
same,mass density,"293.15 K, x1 = 0.8031",1238.53 ± 1 kg/m3
same,mass density,"293.15 K, x1 = 0.9021",1249.15 ± 1.2 kg/m3
same,speed of sound,"298.15 K, x1 = 0.0528",1648.2 ± 2.2 m/s
same,speed of sound,"298.15 K, x1 = 0.1031",1640.8 ± 2.2 m/s
same,speed of sound,"298.15 K, x1 = 0.2102",1630.7 ± 2.3 m/s
same,speed of sound,"298.15 K, x1 = 0.3163",1623 ± 2.4 m/s
same,speed of sound,"298.15 K, x1 = 0.4186",1616.8 ± 2.4 m/s
same,speed of sound,"298.15 K, x1 = 0.512",1613.8 ± 2.5 m/s
same,speed of sound,"298.15 K, x1 = 0.6129",1612.4 ± 2.6 m/s
same,speed of sound,"298.15 K, x1 = 0.6967",1611.9 ± 2.6 m/s
same,speed of sound,"298.15 K, x1 = 0.8031",1613.2 ± 2.7 m/s
same,speed of sound,"298.15 K, x1 = 0.9021",1616 ± 2.8 m/s
same,mass density,"298.15 K, x1 = 0.0528",1128.67 ± 0.18 kg/m3
same,mass density,"298.15 K, x1 = 0.1031",1142.79 ± 0.21 kg/m3
same,mass density,"298.15 K, x1 = 0.2102",1166.87 ± 0.28 kg/m3
same,mass density,"298.15 K, x1 = 0.3163",1184.21 ± 0.37 kg/m3
same,mass density,"298.15 K, x1 = 0.4186",1198 ± 0.47 kg/m3
same,mass density,"298.15 K, x1 = 0.512",1208.33 ± 0.58 kg/m3
same,mass density,"298.15 K, x1 = 0.6129",1217.41 ± 0.71 kg/m3
same,mass density,"298.15 K, x1 = 0.6967",1225.25 ± 0.84 kg/m3
same,mass density,"298.15 K, x1 = 0.8031",1235.13 ± 1 kg/m3
same,mass density,"298.15 K, x1 = 0.9021",1245.76 ± 1.2 kg/m3
same,speed of sound,"303.15 K, x1 = 0.0528",1636.4 ± 2.2 m/s
same,speed of sound,"303.15 K, x1 = 0.1031",1629.8 ± 2.2 m/s
same,speed of sound,"303.15 K, x1 = 0.2102",1619.1 ± 2.3 m/s
same,speed of sound,"303.15 K, x1 = 0.3163",1611.6 ± 2.4 m/s
same,speed of sound,"303.15 K, x1 = 0.4186",1606.2 ± 2.4 m/s
same,speed of sound,"303.15 K, x1 = 0.512",1603 ± 2.5 m/s
same,speed of sound,"303.15 K, x1 = 0.6129",1601.7 ± 2.6 m/s
same,speed of sound,"303.15 K, x1 = 0.6967",1600.4 ± 2.6 m/s
same,speed of sound,"303.15 K, x1 = 0.8031",1600.9 ± 2.7 m/s
same,speed of sound,"303.15 K, x1 = 0.9021",1602.4 ± 2.8 m/s
same,mass density,"303.15 K, x1 = 0.0528",1125.14 ± 0.18 kg/m3
same,mass density,"303.15 K, x1 = 0.1031",1139.26 ± 0.21 kg/m3
same,mass density,"303.15 K, x1 = 0.2102",1163.34 ± 0.28 kg/m3
same,mass density,"303.15 K, x1 = 0.3163",1180.73 ± 0.37 kg/m3
same,mass density,"303.15 K, x1 = 0.4186",1194.57 ± 0.47 kg/m3
same,mass density,"303.15 K, x1 = 0.512",1204.94 ± 0.58 kg/m3
same,mass density,"303.15 K, x1 = 0.6129",1214.06 ± 0.71 kg/m3
same,mass density,"303.15 K, x1 = 0.6967",1221.86 ± 0.83 kg/m3
same,mass density,"303.15 K, x1 = 0.8031",1231.73 ± 1 kg/m3
same,mass density,"303.15 K, x1 = 0.9021",1242.37 ± 1.2 kg/m3
same,speed of sound,"308.15 K, x1 = 0.0528",1624.7 ± 2.2 m/s
same,speed of sound,"308.15 K, x1 = 0.1031",1618.3 ± 2.2 m/s
same,speed of sound,"308.15 K, x1 = 0.2102",1607.5 ± 2.3 m/s
same,speed of sound,"308.15 K, x1 = 0.3163",1600.1 ± 2.4 m/s
same,speed of sound,"308.15 K, x1 = 0.4186",1594.3 ± 2.4 m/s
same,speed of sound,"308.15 K, x1 = 0.512",1591.3 ± 2.5 m/s
same,speed of sound,"308.15 K, x1 = 0.6129",1590 ± 2.6 m/s
same,speed of sound,"308.15 K, x1 = 0.6967",1589.1 ± 2.6 m/s
same,speed of sound,"308.15 K, x1 = 0.8031",1589.3 ± 2.7 m/s
same,speed of sound,"308.15 K, x1 = 0.9021",1589.8 ± 2.8 m/s
same,mass density,"308.15 K, x1 = 0.0528",1121.61 ± 0.18 kg/m3
same,mass density,"308.15 K, x1 = 0.1031",1135.72 ± 0.21 kg/m3
same,mass density,"308.15 K, x1 = 0.2102",1159.81 ± 0.28 kg/m3
same,mass density,"308.15 K, x1 = 0.3163",1177.25 ± 0.36 kg/m3
same,mass density,"308.15 K, x1 = 0.4186",1191.13 ± 0.47 kg/m3
same,mass density,"308.15 K, x1 = 0.512",1201.54 ± 0.57 kg/m3
same,mass density,"308.15 K, x1 = 0.6129",1210.72 ± 0.7 kg/m3
same,mass density,"308.15 K, x1 = 0.6967",1218.56 ± 0.83 kg/m3
same,mass density,"308.15 K, x1 = 0.8031",1228.31 ± 1 kg/m3
same,mass density,"308.15 K, x1 = 0.9021",1238.93 ± 1.2 kg/m3
same,speed of sound,"313.15 K, x1 = 0.0528",1613.1 ± 2.2 m/s
same,speed of sound,"313.15 K, x1 = 0.1031",1606.5 ± 2.2 m/s
same,speed of sound,"313.15 K, x1 = 0.2102",1596.1 ± 2.3 m/s
same,speed of sound,"313.15 K, x1 = 0.3163",1588.8 ± 2.3 m/s
same,speed of sound,"313.15 K, x1 = 0.4186",1583.2 ± 2.4 m/s
same,speed of sound,"313.15 K, x1 = 0.512",1580.3 ± 2.5 m/s
same,speed of sound,"313.15 K, x1 = 0.6129",1579.1 ± 2.6 m/s
same,speed of sound,"313.15 K, x1 = 0.6967",1578.2 ± 2.6 m/s
same,speed of sound,"313.15 K, x1 = 0.8031",1578 ± 2.7 m/s
same,speed of sound,"313.15 K, x1 = 0.9021",1578 ± 2.8 m/s
same,mass density,"313.15 K, x1 = 0.0528",1118.07 ± 0.18 kg/m3
same,mass density,"313.15 K, x1 = 0.1031",1132.18 ± 0.2 kg/m3
same,mass density,"313.15 K, x1 = 0.2102",1156.29 ± 0.27 kg/m3
same,mass density,"313.15 K, x1 = 0.3163",1173.78 ± 0.36 kg/m3
same,mass density,"313.15 K, x1 = 0.4186",1187.7 ± 0.46 kg/m3
same,mass density,"313.15 K, x1 = 0.512",1198.15 ± 0.57 kg/m3
same,mass density,"313.15 K, x1 = 0.6129",1207.38 ± 0.7 kg/m3
same,mass density,"313.15 K, x1 = 0.6967",1215.25 ± 0.82 kg/m3
same,mass density,"313.15 K, x1 = 0.8031",1225 ± 0.99 kg/m3
same,mass density,"313.15 K, x1 = 0.9021",1235.48 ± 1.2 kg/m3
same,speed of sound,"318.15 K, x1 = 0.0528",1601.4 ± 2.2 m/s
same,speed of sound,"318.15 K, x1 = 0.1031",1595 ± 2.2 m/s
same,speed of sound,"318.15 K, x1 = 0.2102",1584.5 ± 2.3 m/s
same,speed of sound,"318.15 K, x1 = 0.3163",1577.5 ± 2.3 m/s
same,speed of sound,"318.15 K, x1 = 0.4186",1572.2 ± 2.4 m/s
same,speed of sound,"318.15 K, x1 = 0.512",1569.5 ± 2.5 m/s
same,speed of sound,"318.15 K, x1 = 0.6129",1568.3 ± 2.6 m/s
same,speed of sound,"318.15 K, x1 = 0.6967",1567.4 ± 2.6 m/s
same,speed of sound,"318.15 K, x1 = 0.8031",1567.1 ± 2.7 m/s
same,speed of sound,"318.15 K, x1 = 0.9021",1566.8 ± 2.8 m/s
same,mass density,"318.15 K, x1 = 0.0528",1114.51 ± 0.18 kg/m3
same,mass density,"318.15 K, x1 = 0.1031",1128.62 ± 0.2 kg/m3
same,mass density,"318.15 K, x1 = 0.2102",1152.75 ± 0.27 kg/m3
same,mass density,"318.15 K, x1 = 0.3163",1170.3 ± 0.36 kg/m3
same,mass density,"318.15 K, x1 = 0.4186",1184.27 ± 0.46 kg/m3
same,mass density,"318.15 K, x1 = 0.512",1194.76 ± 0.57 kg/m3
same,mass density,"318.15 K, x1 = 0.6129",1204.05 ± 0.69 kg/m3
same,mass density,"318.15 K, x1 = 0.6967",1211.94 ± 0.81 kg/m3
same,mass density,"318.15 K, x1 = 0.8031",1221.73 ± 0.99 kg/m3
same,mass density,"318.15 K, x1 = 0.9021",1232.06 ± 1.2 kg/m3

# From the NIST ThermoML archive (doi:10.1016/j.fluid.2013.08.029)
